Results from patent publication US7365154B2, “Peptides antagonistic to an anti-angiogenic antibody and uses therefor” (Centocor, Inc., priority 2003, dated 2008).
Entries after “also recorded” stand apart in the source; their conditions may differ.

Key:
CNTO95 mAb = assay: ELISA for CNTO95 binding to synthetic peptide-coated plates; parameters: species or system human; conditions: plates coated with 100 μg/ml peptide, absorbance at 450 nm
Procedure: (§1) To verify the binding activity of synthetic peptides to CNTO95 mAb, ELISAs were performed using peptide-coated plates. PRO-Bind ELISA plates (Falcon) were coated with 100 μl (100 μg/ml) of either CEN 2319, CEN2322 or PBS buffer. Peptide-charged ELISA plates were incubated with 100 μl of various concentrations of CNTO95 mAb for 2 hours at 37° C., and the wells then were washed with PBS plus 0.5% Tween 20 (PBST). Binding was detected with a 1:5,000 dilution of peroxidase-conjugated goat anti-human IgG, Fc gamma fragment antibody (Jackson) and color development with 3,3′,5,5′-tetramethyl-benzidine dihydrochloride (TMB). The reaction was detected by reading the absorbance at 450 nm. PBS-coated wells were used as background control. […] Another set of negative control was performed using mAb CNTO1275 (FIG. 4C). The binding signal is negative.

[1] = system: CNTO95 mAb binding to integrin αVβ3; assay: Competitive ELISA on plates coated with integrin αVβ3; parameters: species or system human; conditions: peptide 0 to 200 μg/ml
Procedure: (§2) Competitive ELISA on microtiter plates coated with integrins αVβ3 or αVβ5 were carried out to evaluate the binding specificity for CEN2319 peptide to CNTO95 mAb. 100 ul of 5 μg/ml either αVβ3 or αVβ5 (Chemicon, Temacula, Calif.) was coated on the ELISA plates at […] over night. Then, 100 μl of 2 μg/ml CNTO95 was pre-incubated at room temperature for 30 minutes with various concentration peptides (100 μl), ranging from 0 to 200 μg/ml. The peptide-antibody mixtures were then added to the integrin-coated microwells. Following incubation at 37° C. for 2 hours, the plates were washed thoroughly, and bound CNTO95 was detected using peroxidase-conjugated goat anti-human IgG, Fc gamma fragment antibody (1:5,000 dilution), followed by substrate addition as above.

[2] = system: CNTO95 mAb binding to integrin αVβ5; assay: Competitive ELISA on plates coated with integrin αVβ5; parameters: species or system human; conditions: peptide 0 to 200 μg/ml
Procedure: as §2

CNTO95 [3] = assay: Positional substitution analysis: peptides spotted on nitrocellulose membrane probed with CNTO95; assay type: binding, human; parameters: key: +++: very strong; ++: strong; +: equivalent; ±: weak; Blank: negative; conditions: CEN2319 with one position substituted, + = equivalent
Procedure: In order to further understand the contribution of each amino acid residue in the binding, systematic substitution at each position were made and tested. The binding analysis was carried out by spotting the various peptides on a nitrocellulose membrane and probing with CNTO95 followed by HRP-conjugated goat-anti-human Fc antibody and color developed using a peroxidase substrate.

[4] = system: A375.S2 cells (human melanoma cells); assay: Flow cytometry of CNTO95 binding to surface integrins of A375.S2 cells with or without peptides; assay type: cell-based; conditions: CNTO95 only 10 ug/ml, no peptide
Procedure: For the detection of surface integrins, A375.S2 cells (human melanoma cells) were harvested, rinsed, suspended in unsupplemented RPMI media. The antibody, CNTO95, was incubated at a final concentration of 10 ug/ml with or without peptides at the concentrations given in Table 1 for 1 hr. Then, the cell solution was added and incubated for an additonal 60 minutes on ice followed by addition of PE-labeled goat anti-human antibody IgG-Fc (10 ug/ml). Absence of primary antibody or substitution of primary antibody with isotype matched antibody served as negative controls. Cells were immediately analyzed with a FACS Scan II flow cytometer (Becton Dickinson, Mountain View, Calif.). […] For simplicity, the mean channel fluorescence for each peak was used as the relative staining value (Table 5).

[5] = system: M21, human melanoma cells; assay: Cell adhesion assay on vitronectin coated plates, CNTO95 with peptides; assay type: cell-based; conditions: FIG. 7
Procedure: For cell adhesion assays, Microtiter plates (Linbro-Titertek, ICN Biomedicals, Inc) were coated at 4° C. overnight with vitronectin (1 mg/ml). Immediately before use plates were rinsed with PBS and blocked for 1 hour with 1% BSA/PBS (pH 7.4). Adherent cells (M21, human melanoma cells) were labeled with Calcein AM fluorescent dye (Molecular Probes, Eugene, Oreg.) according to the manufacturer's instructions, harvested, washed twice, and suspended in 0.1% BSA in DMEM medium. Various concentration of Antibodies were incubated with peptides for 1 hrs. Cell density was adjusted to 5×10^5/ml and they were incubated with antibody and peptide solution for 15 min at 37° C. The cell-antibody mixture was added to wells (100 μl per well) and incubated for 1 h at 37° C. Plates were rinsed twice with PBS to remove unbound cells and adhesion was measured in a fluorescence plate reader (Fluoroskan) at 485-538 nm. Cell adhesion to BSA-coated wells served as a negative control. Isotype matched antibodies served as a negative control.

CEN2319 coated plates = assay: ELISA of other antibodies on CEN2319 coated plates; assay type: binding; conditions: negative control antibodies
Procedure: as §1

CNTO95 [6] = assay: Titration microcalorimetry of synthetic peptides with CNTO95; assay type: binding, human
Procedure: Titration microcalorimetry is a technique used to measure equilibrium binding affinity by monitoring the enthalpy of binding as a function of titrant added to second molecule at fixed temperature. To determine binding affinities and stoichiometries of synthetic peptides for CNTO95, titration calorimetry experiments were carried out with a Microcal (Amherst, Mass.) MCS isothermal titration calorimeter. Protein concentrations were measured by absorbance at 280 nm. Aliquots of peptide were titrated into a fixed concentration of CNTO95 at 3 μM in Dulbecco's PBS. Heats of binding are monitored with each injection. Peptides were added until the observed heats approach the heats of diluted peptides into buffer. Calorimetry data were analyzed with Microcal ORIGIN software according to a single-site binding model in each case (Wiseman et al., Anal. Biochem. 179: 131-137, 1989). The model includes an equilibrium binding constant (Kd), a molar binding enthalpy change (ΔH) and a molar binding ratio for the binding reaction at 25° C. Table 3 gives the calculated CNTO95 binding properties of synthetic peptides from titration calorimetry data.

## DFRSWWDLSGYR [CEN2319]
CNTO95 mAb
  CNTO95 mAb binding to peptide-coated plates: recognized specifically; also recorded: specific binding
[1]
  competition with CNTO95 binding to αVβ3 (in words): inhibits
[2]
  competition with CNTO95 binding to αVβ5 (in words): significant inhibition; also recorded: inhibits
CNTO95 [3]; listed as D1D
  Intensity (relative density of color at each spot): +
CNTO95 [3]; listed as D7D
  Intensity (relative density of color at each spot): ++
CNTO95 [3]; listed as F2F
  Intensity (relative density of color at each spot): +
CNTO95 [3]; listed as G10G
  Intensity (relative density of color at each spot): +
CNTO95 [3]; listed as L8L
  Intensity (relative density of color at each spot): ++
CNTO95 [3]; listed as R3R
  Intensity (relative density of color at each spot): +
CNTO95 [3]; listed as R12R
  Intensity (relative density of color at each spot): +
CNTO95 [3]; listed as S4S
  Intensity (relative density of color at each spot): +
CNTO95 [3]; listed as S9S
  Intensity (relative density of color at each spot): +
CNTO95 [3]; listed as W5W
  Intensity (relative density of color at each spot): ++
CNTO95 [3]; listed as W6W
  Intensity (relative density of color at each spot): +
CNTO95 [3]; listed as Y11Y
  Intensity (relative density of color at each spot): +

## CNTO95: fully human IgG1, kappa monoclonal antibody recognizing integrins αVβ3 and αVβ5
[4]
  Mean Channel Fluorescence: 89.7

## DFRSWWDLEE (Phage Library Derived Sequence) [CEN2553, alternate antagonist peptide, 10-mer]
[5]
  effect on the inhibition of cellular adhesion by CNTO95 to vitronectin coated plates: indistinguishable from the peptide CEN2319

## CNTO1275: another human mAb to an unrelated antigen
CEN2319 coated plates
  antibody binding to CEN2319 coated plates: negative

## DYRTA ADTTGLQ (DYRTAADTTGLQ; PEPTIDE (1)..(12) Residues 564 to 575 inclusive of human alpha V integrin subunit protein; listed as Homo sapiens) [CEN2322]
CNTO95 mAb
  CNTO95 mAb binding to peptide-coated plates: did not bind
[1]
  competition with CNTO95 binding to αVβ3 (in words): did not compete
[2]
  competition with CNTO95 binding to αVβ5 (in words): did not compete
CNTO95 [6]
  Comments (binding to CNTO95 by calorimetry): no evidence for CEN2322 peptide binding to CNTO95 mAb

## SPLFXPW [flanked by cysteine residues which form a disulfide bond]
CNTO95 mAb
  CNTO95 mAb binding to peptide-coated plates: no specific binding was detected
